# Test results from US20240409585A1, “MACROCYCLIC IMMUNOMODULATORS” (priority 2021, published 2024).
# Numbered stars: 1 amine (or outer) side, 2 acyl side, 3 side chain; on linkers, the order of the positions; unused ones are H or OH. Bridge positions count the residues as written; N and C are the ends. Square brackets hold non-standard residues; d marks the D form. Peptide text beside a SMILES is read from it. * marks the point of attachment. ξ: configuration not given here. X33 = O=C([C@H](Cc1ccc(-c2cccc(Cl)c2)cc1)N[*:1])[*:2]; Phe(4-COOH) = N[C@@H](Cc1ccc(C(=O)O)cc1)C(=O)O; Bip = N[C@@H](Cc1ccc(-c2ccccc2)cc1)C(=O)O; Tyr(3-I) = N[C@@H](Cc1ccc(O)c(I)c1)C(=O)O; Phe(4-CN) = N#Cc1ccc(C[C@H](N)C(=O)O)cc1; Phe(3-Me) = Cc1cccc(C[C@H](N)C(=O)O)c1; 1Nal = N[C@@H](Cc1cccc2ccccc12)C(=O)O; Val(3-OH) = CC(C)(O)[C@H](N)C(=O)O; 2Pal = N[C@@H](Cc1ccccn1)C(=O)O; 3Pal = N[C@@H](Cc1cccnc1)C(=O)O; 4Pal = N[C@@H](Cc1ccncc1)C(=O)O; Cha = N[C@@H](CC1CCCCC1)C(=O)O; Cit = NC(=O)NCCC[C@H](N)C(=O)O; Ile(3ξ) = CCC(C)[C@H](N)C(=O)O; Thr(3ξ) = CC(O)[C@H](N)C(=O)O; Pip = O=C(O)[C@@H]1CCCCN1; Carboxymethyl = O=C(O)C*; NMeA = CN[C@@H](C)C(=O)O; Orn = NCCC[C@H](N)C(=O)O; Pra = C#CC[C@H](N)C(=O)O; Dab = NCC[C@H](N)C(=O)O; Dap = NC[C@H](N)C(=O)O
# Biological target: T1, PE-labeled human PD-L1-Ig binding to Jurkat cell line over-expressing human PD-1 (Jurkat-PD-1) (Homo sapiens, UniProt Q15116)
# T1 construct: expressed in transfected cells; host or cells: Jurkat
# T1 sequence (Q15116 25-288): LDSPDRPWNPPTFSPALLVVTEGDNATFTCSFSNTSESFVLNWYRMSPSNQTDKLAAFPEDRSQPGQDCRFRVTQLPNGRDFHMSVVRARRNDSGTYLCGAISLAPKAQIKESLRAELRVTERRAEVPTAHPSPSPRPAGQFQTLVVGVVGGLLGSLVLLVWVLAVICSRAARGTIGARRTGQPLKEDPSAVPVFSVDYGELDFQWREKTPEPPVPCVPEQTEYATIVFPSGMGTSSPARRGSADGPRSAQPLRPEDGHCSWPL
# Experiment: Jurkat-PD-1 Cell Binding High-Content Screening Assay (CBA): Method 1
# Details: Jurkat-hPD-1 cells, PE-labeled PD-L1-Ig 20 nM final; read-out: Jurkat HPDL1 PD1 IC50 (uM) (Method 1)
row,SMILES,IC50
1,CC(C)C[C@@H]1NC(=O)[C@H](CCCNC(=N)N)NC(=O)[C@@H](CC(C)C)NC(=O)[C@H](C)N(C)C(=O)[C@H](CCCNC(=N)N)NC(=O)[C@H](Cc2ccc(-c3ccccc3)cc2)NC(=O)[C@H](C(C)C)NC(=O)[C@H](Cc2c[nH]c3ccccc23)NC(=O)[C@H](CC(=O)O)NC(=O)[C@H](Cc2ccc(O)c(I)c2)NC(=O)[C@H](Cc2ccccc2)NC(=O)CSC[C@@H](C(=O)N[C@@H](C)C(N)=O)NC(=O)[C@H]([C@@H](C)O)NC(=O)[C@H](C(C)C)NC1=O [Compound 1109] ({CH2CO}-F[Tyr(3-I)]DWV[Bip]R[NMeA][dL]RLVTCA-NH2; thioether N-14),0.12 µM
2,Cc1cccc(C[C@@H]2NC(=O)[C@H](CC(=O)O)NC(=O)[C@H](Cc3ccc(OCC(=O)O)cc3)NC(=O)[C@H](Cc3ccc(OCC(=O)O)cc3)NC(=O)CSC[C@@H](C(N)=O)NC(=O)[C@H](CCC(N)=O)NC(=O)[C@H](C(C)C)NC(=O)[C@H](CC3CCCCC3)NC(=O)[C@H](CCN)NC(=O)[C@@H](CC(C)C)NC(=O)[C@H](C)N(C)C(=O)[C@H](Cc3ccc(OCC(=O)O)cc3)NC(=O)[C@H](Cc3ccc(-c4ccccc4)cc3)NC(=O)[C@H](Cc3ccc(OCC(=O)O)cc3)NC2=O)c1 [Compound 1655] ({CH2CO}-Y(Carboxymethyl)Y(Carboxymethyl)D[Phe(3-Me)]Y(Carboxymethyl)[Bip]Y(Carboxymethyl)[NMeA][dL][Dab][Cha]VQC-NH2; thioether N-14),0.03 µM
3,CC(C)C[C@@H]1NC(=O)[C@H](CCN)NC(=O)[C@@H](CC(C)C)NC(=O)[C@H](C)N(C)C(=O)[C@H](CCCNC(N)=O)NC(=O)[C@H](Cc2ccc(-c3ccccc3)cc2)NC(=O)[C@H](C(C)C)NC(=O)[C@H](Cc2c[nH]c3ccccc23)NC(=O)[C@H](CC(=O)O)NC(=O)[C@H](Cc2ccc(C#N)cc2)NC(=O)[C@H](Cc2ccncc2)NC(=O)CSC[C@@H](C(=O)N[C@@H](C)C(N)=O)NC(=O)[C@H]([C@@H](C)O)NC(=O)[C@H](C(C)C)NC1=O [Compound 1402] ({CH2CO}-[4Pal][Phe(4-CN)]DWV[Bip][Cit][NMeA][dL][Dab]LVTCA-NH2; thioether N-14),0.02 µM
4,Cc1cccc(C[C@@H]2NC(=O)[C@H](CC(=O)O)NC(=O)[C@H](Cc3ccc(OCC(=O)O)cc3)NC(=O)[C@H](CN)NC(=O)CSC[C@@H](C(N)=O)NC(=O)[C@H](CO)NC(=O)[C@H](C(C)C)NC(=O)[C@H](CC(C)C)NC(=O)[C@H](CC(N)=O)NC(=O)[C@@H](CC(C)C)NC(=O)[C@H](C)N(C)C(=O)[C@H](CCCNC(N)=O)NC(=O)[C@H](Cc3ccc(-c4ccccc4)cc3)NC(=O)[C@H](CC(C)C)NC2=O)c1 [Compound 1644] ({CH2CO}-[Dap]Y(Carboxymethyl)D[Phe(3-Me)]L[Bip][Cit][NMeA][dL]NLVSC-NH2; thioether N-14),0.06 µM
5,CC(C)C[C@@H]1NC(=O)[C@H](CCN)NC(=O)[C@@H](CC(C)C)NC(=O)[C@H](C)N(C)C(=O)[C@H](C(C)C)NC(=O)[C@H](Cc2ccc(-c3ccccc3)cc2)NC(=O)[C@H](C(C)C)NC(=O)[C@H](Cc2c[nH]c3ccccc23)NC(=O)[C@H](CC(=O)O)NC(=O)[C@H](Cc2ccc(OCC(=O)O)cc2)NC(=O)[C@H](Cc2ccc(OCC(=O)O)cc2)NC(=O)CSC[C@@H](C(=O)N[C@@H](C)C(N)=O)NC(=O)[C@H]([C@@H](C)O)NC(=O)[C@H](C(C)C)NC1=O [Compound 1567] ({CH2CO}-Y(Carboxymethyl)Y(Carboxymethyl)DWV[Bip]V[NMeA][dL][Dab]LVTCA-NH2; thioether N-14),0.02 µM
6,CC(C)C[C@@H]1NC(=O)[C@H](CCN)NC(=O)[C@@H](CC(C)C)NC(=O)[C@H](C)N(C)C(=O)[C@H](CCCNC(N)=O)NC(=O)[C@H](Cc2ccc(-c3ccccc3)cc2)NC(=O)[C@H](C(C)C)NC(=O)[C@H](Cc2c[nH]c3ccccc23)NC(=O)[C@H](CC(=O)O)NC(=O)[C@H](Cc2ccccn2)NC(=O)[C@H](Cc2cccnc2)NC(=O)CSC[C@@H](C(=O)N[C@@H](C)C(N)=O)NC(=O)[C@H]([C@@H](C)O)NC(=O)[C@H](C(C)C)NC1=O [Compound 1334] ({CH2CO}-[3Pal][2Pal]DWV[Bip][Cit][NMeA][dL][Dab]LVTCA-NH2; thioether N-14),0.63 µM
7,CC(C)C[C@@H]1NC(=O)[C@H](Cc2c[nH]c3ccccc23)NC(=O)[C@H](CC(=O)O)NC(=O)[C@H](Cc2ccncc2)NC(=O)[C@H](Cc2ccc(OCC(=O)O)cc2)NC(=O)CSC[C@@H](C(=O)N[C@@H](C)C(N)=O)NC(=O)[C@H](CO)NC(=O)[C@H](C(C)C)NC(=O)[C@H](CC(C)C)NC(=O)[C@H](CC(N)=O)NC(=O)[C@@H](C)NC(=O)[C@H](C)N(C)C(=O)[C@H](C(C)C)NC(=O)[C@H](Cc2ccc(-c3ccccc3)cc2)NC1=O [Compound 1564] ({CH2CO}-Y(Carboxymethyl)[4Pal]DWL[Bip]V[NMeA][dA]NLVSCA-NH2; thioether N-14),0.01 µM

# The next lines start with the values.
row,IC50,SMILES
1,0.05 µM,Cc1cccc(C[C@@H]2NC(=O)[C@H](CC(=O)O)NC(=O)[C@H](Cc3ccc(OCC(=O)O)cc3)NC(=O)[C@H](CN)NC(=O)CSC[C@@H](C(=O)N[C@@H](CCN)C(N)=O)NC(=O)[C@H](CCCN)NC(=O)[C@H](C(C)C)NC(=O)[C@H](CC3CCCCC3)NC(=O)[C@H](CCN)NC(=O)[C@@H](C)NC(=O)[C@H](C)N(C)C(=O)[C@H](Cc3ccc(O)cc3)NC(=O)[C@H](Cc3ccc(-c4ccccc4)cc3)NC(=O)[C@H](Cc3ccc(O)cc3)NC2=O)c1 [Compound 1875] ({CH2CO}-[Dap]Y(Carboxymethyl)D[Phe(3-Me)]Y[Bip]Y[NMeA][dA][Dab][Cha]V[Orn]C[Dab]-NH2; thioether N-14)
2,0.01 µM,CCC(C)[C@@H]1NC(=O)[C@H](Cc2ccc(-c3ccccc3)cc2)NC(=O)[C@H](C(C)C)NC(=O)[C@H](Cc2cccc(C)c2)NC(=O)[C@H](CC(=O)O)NC(=O)[C@H](Cc2ccc(OCC(=O)O)cc2)NC(=O)[C@H](C(C)O)NC(=O)CSC[C@@H](C(=O)N[C@@H](CCN)C(N)=O)NC(=O)[C@H](C(C)O)NC(=O)[C@H](C(C)C)NC(=O)[C@H](CC2CCCCC2)NC(=O)[C@H](CCN)NC(=O)[C@@H](CC(C)C)NC(=O)[C@H](C)N(C)C1=O (stereo partly drawn) [Compound 2116] ({CH2CO}-[Thr(3ξ)]Y(Carboxymethyl)D[Phe(3-Me)]V[Bip][Ile(3ξ)][NMeA][dL][Dab][Cha]V[Thr(3ξ)]C[Dab]-NH2; thioether N-14)
3,0.43 µM,C#CC[C@H](NC(=O)[C@@H](C)NC(=O)[C@@H]1CSCC(=O)N[C@@H]([C@@H](C)O)C(=O)N[C@@H](Cc2ccc(C(=O)O)cc2)C(=O)N[C@@H](CC(=O)O)C(=O)N[C@@H](Cc2cccc(C)c2)C(=O)N[C@@H](Cc2ccc(C(=O)O)cc2)C(=O)N[C@@H](Cc2ccc(-c3ccccc3)cc2)C(=O)N[C@@H](Cc2ccc(OCC(=O)O)cc2)C(=O)N(C)[C@@H](C)C(=O)N[C@H](CC(C)C)C(=O)N[C@@H](CCN)C(=O)N[C@@H](CC2CCCCC2)C(=O)N[C@@H](C(C)(C)O)C(=O)N[C@@H](CCC(=O)O)C(=O)N1)C(N)=O [Compound 1947] ({CH2CO}-T[Phe(4-COOH)]D[Phe(3-Me)][Phe(4-COOH)][Bip]Y(Carboxymethyl)[NMeA][dL][Dab][Cha][Val(3-OH)]EC[dA][Pra]-NH2; thioether N-14)
4,0.01 µM,CC(C)C[C@@H]1NC(=O)[C@H](C)NC(=O)[C@@H](C)NC(=O)[C@H](C)N(C)C(=O)[C@H](C(C)C)NC(=O)[C@H](Cc2ccc(-c3ccccc3)cc2)NC(=O)[C@H](CC(C)C)NC(=O)[C@H](Cc2c[nH]c3ccccc23)NC(=O)[C@H](CC(=O)O)NC(=O)[C@H](Cc2ccc(O)cc2)NC(=O)[C@H](Cc2ccccc2)NC(=O)CSC[C@@H](C(=O)N[C@@H](C)C(N)=O)NC(=O)[C@H](CO)NC(=O)[C@H](C(C)C)NC1=O [Compound 1733] ({CH2CO}-FYDWL[Bip]V[NMeA][dA]ALVSCA-NH2; thioether N-14)
5,0.05 µM,CC(C)C[C@@H]1NC(=O)[C@H](Cc2c[nH]c3ccccc23)NC(=O)[C@H](CC(=O)O)NC(=O)[C@H](Cc2ccc(O)cc2)NC(=O)[C@H](Cc2ccccc2)NC(=O)CSC[C@@H](C(=O)N[C@@H](C)C(N)=O)NC(=O)[C@H](CO)NC(=O)[C@H](C(C)C)NC(=O)[C@H](CC(C)C)NC(=O)[C@H](CC(N)=O)NC(=O)[C@@H](C)NC(=O)[C@H](C)N(C)C(=O)[C@H](C(C)C)NC(=O)[C@H](Cc2ccc(-c3cccc(Cl)c3)cc2)NC1=O [Compound 1774] ({CH2CO}-FYDWL[X33]V[NMeA][dA]NLVSCA-NH2; thioether N-14)
6,0.04 µM,CC(C)C[C@@H]1NC(=O)[C@H](Cc2c[nH]c3ccccc23)NC(=O)[C@H](CC(=O)O)NC(=O)[C@H](Cc2ccc(OCC(=O)O)cc2)NC(=O)[C@H](C(C)O)NC(=O)CSC[C@@H](C(N)=O)NC(=O)[C@H](CO)NC(=O)[C@H](C(C)C)NC(=O)[C@H](CC2CCCCC2)NC(=O)[C@H](Cc2cnc[nH]2)NC(=O)[C@@H](CC(C)C)NC(=O)[C@H](C)N(C)C(=O)[C@H](C(C)C)NC(=O)[C@H](Cc2ccc(-c3ccccc3)cc2)NC1=O (stereo partly drawn) [Compound 2253] ({CH2CO}-[Thr(3ξ)]Y(Carboxymethyl)DWL[Bip]V[NMeA][dL]H[Cha]VSC-NH2; thioether N-14)
7,0.3 µM,Cc1cccc(C[C@@H]2NC(=O)[C@H](CC(=O)O)NC(=O)[C@H](Cc3ccc(OCC(=O)O)cc3)NC(=O)[C@H](CN)NC(=O)CSC[C@@H](C(N)=O)NC(=O)[C@H](CCC(=O)O)NC(=O)[C@H](C(C)C)NC(=O)[C@H](CC3CCCCC3)NC(=O)[C@H](CCN)NC(=O)[C@@H](CC(C)C)NC(=O)[C@@H]3CCCCN3C(=O)[C@H](Cc3ccc(OCC(=O)O)cc3)NC(=O)[C@H](Cc3ccc(-c4ccccc4)cc3)NC(=O)[C@H](Cc3ccc(OCC(=O)O)cc3)NC2=O)c1 [Compound 1894] ({CH2CO}-[Dap]Y(Carboxymethyl)D[Phe(3-Me)]Y(Carboxymethyl)[Bip]Y(Carboxymethyl)[Pip][dL][Dab][Cha]VEC-NH2; thioether N-14)
8,0.23 µM,CC(C)C[C@@H]1NC(=O)[C@H](Cc2c[nH]c3ccccc23)NC(=O)[C@H](CC(=O)O)NC(=O)[C@H](Cc2cccc3ccccc23)NC(=O)[C@H](Cc2ccccc2)NC(=O)CSC[C@@H](C(=O)N[C@@H](C)C(N)=O)NC(=O)[C@H](CO)NC(=O)[C@H](C(C)C)NC(=O)[C@H](CC(C)C)NC(=O)[C@H](CC(N)=O)NC(=O)[C@@H](C)NC(=O)[C@H](C)N(C)C(=O)[C@H](C(C)C)NC(=O)[C@H](Cc2ccc(-c3ccccc3)cc2)NC1=O [Compound 1805] ({CH2CO}-F[1Nal]DWL[Bip]V[NMeA][dA]NLVSCA-NH2; thioether N-14)
